Key:
common dogwood diseases = experiment: Drench experiments on flowering dogwoods; format: in vivo; settings: soil drench; compared with fluoxastrobin (personal experience)
Source text: Evidence of how far you have to stray from my preferred formulation and application plan before the invention stops being useful (in other words, what are the boundaries of this invention). Not all strobilurins have xylem mobility only azoxystrobin and fluoxastrobin show this ability.

[1] = Direct trunk injection, phytotoxicity; format: in vivo; settings: movement into xylem vessels
Source text: For direct trunk injections, the azoxystrobin fungicide is compatible with the physiology of the plants. […] Other formulations such as fluoxastrobin are not advised for direct trunk injections.

## CO/C=C(/C(=O)OC)c1ccccc1Oc1cc(Oc2ccccc2C#N)ncn1 [azoxystrobin]
Common dogwood diseases
  control of common dogwood diseases: excellent season long control
[1]
  phytotoxicity: without phytotoxicity
